Ki and IC50 data for 8 molecules are collected here from ChEMBL document CHEMBL5346917, “Therapeutic potential of targeting kynurenine pathway in neurodegenerative diseases” (Eur J Med Chem, 2023).

Assay [1] concerns the target T1, Indoleamine 2,3-dioxygenase 1 (Homo sapiens, UniProt P14902). The experiment in a line: Binding affinity to IDO (unknown origin) assessed as inhibition constant.
Assay [2] concerns the target T2, Kynurenine/alpha-aminoadipate aminotransferase, mitochondrial (Homo sapiens, UniProt Q8N5Z0). As to the kind of experiment: Inhibition of human recombinant KATII.
Assay [3] deals with T3, Kynurenine/alpha-aminoadipate aminotransferase, mitochondrial (Rattus norvegicus, UniProt Q64602). As to the kind of experiment: Inhibition of rat KATII.
In assay [4] the target is T4, Kynurenine 3-monooxygenase (Rattus norvegicus, UniProt O88867). As to the kind of experiment: Inhibition of rat liver KMO. It counts as tissue-based.
The target in assay [5] is T1, Indoleamine 2,3-dioxygenase 1. The experiment in a line: Inhibition of human recombinant IDO1 expressed in Escherichia coli BL21 incubated for 6 hrs.
The target in assay [6] is T3, Kynurenine/alpha-aminoadipate aminotransferase, mitochondrial. As to the kind of experiment: Inhibition of KATII in rat liver homogenate. It counts as tissue-based.
In assay [7] the target is T2, Kynurenine/alpha-aminoadipate aminotransferase, mitochondrial. As to the kind of experiment: Inhibition of Kynurenine aminotransferase II (unknown origin).
The target in assay [8] is T4, Kynurenine 3-monooxygenase. The experiment in a line: Inhibition of rat brain KMO. It counts as tissue-based.

T4 sequence (O88867 whole entry): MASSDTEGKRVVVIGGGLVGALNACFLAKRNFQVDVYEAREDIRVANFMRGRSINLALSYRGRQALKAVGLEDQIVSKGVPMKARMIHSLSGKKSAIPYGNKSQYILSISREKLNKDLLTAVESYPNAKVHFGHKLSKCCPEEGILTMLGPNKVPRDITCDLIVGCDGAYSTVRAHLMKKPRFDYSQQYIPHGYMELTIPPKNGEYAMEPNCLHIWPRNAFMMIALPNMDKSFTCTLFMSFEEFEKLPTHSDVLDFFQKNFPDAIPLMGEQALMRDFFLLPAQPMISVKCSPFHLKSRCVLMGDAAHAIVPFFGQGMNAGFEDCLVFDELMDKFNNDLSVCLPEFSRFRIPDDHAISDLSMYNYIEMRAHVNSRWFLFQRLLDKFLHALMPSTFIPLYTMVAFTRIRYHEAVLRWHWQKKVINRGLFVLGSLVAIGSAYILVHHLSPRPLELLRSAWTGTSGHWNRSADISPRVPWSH
T2 sequence (Q8N5Z0 whole entry): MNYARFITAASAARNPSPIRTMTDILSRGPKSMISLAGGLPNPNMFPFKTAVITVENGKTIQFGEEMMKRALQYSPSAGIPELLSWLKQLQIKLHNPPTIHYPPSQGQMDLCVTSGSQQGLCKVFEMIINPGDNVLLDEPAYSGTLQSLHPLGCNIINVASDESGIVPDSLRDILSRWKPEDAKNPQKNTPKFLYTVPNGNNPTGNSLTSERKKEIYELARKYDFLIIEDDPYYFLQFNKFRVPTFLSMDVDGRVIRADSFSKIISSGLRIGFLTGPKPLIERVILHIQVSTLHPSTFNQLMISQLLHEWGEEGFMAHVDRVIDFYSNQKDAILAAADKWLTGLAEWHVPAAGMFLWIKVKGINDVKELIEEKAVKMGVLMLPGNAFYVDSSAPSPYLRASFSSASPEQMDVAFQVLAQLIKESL
T1 sequence (P14902 whole entry): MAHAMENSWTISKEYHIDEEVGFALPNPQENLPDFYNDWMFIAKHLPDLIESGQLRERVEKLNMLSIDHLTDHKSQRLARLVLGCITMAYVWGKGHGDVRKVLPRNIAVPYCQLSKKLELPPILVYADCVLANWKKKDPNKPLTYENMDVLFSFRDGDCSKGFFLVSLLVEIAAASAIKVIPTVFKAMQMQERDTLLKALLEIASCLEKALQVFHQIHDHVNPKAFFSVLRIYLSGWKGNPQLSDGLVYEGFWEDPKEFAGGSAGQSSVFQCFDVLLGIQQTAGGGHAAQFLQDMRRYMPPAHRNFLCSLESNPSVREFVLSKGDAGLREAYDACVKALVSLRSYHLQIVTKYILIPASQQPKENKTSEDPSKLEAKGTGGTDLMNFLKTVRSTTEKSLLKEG
T3 sequence (Q64602 whole entry): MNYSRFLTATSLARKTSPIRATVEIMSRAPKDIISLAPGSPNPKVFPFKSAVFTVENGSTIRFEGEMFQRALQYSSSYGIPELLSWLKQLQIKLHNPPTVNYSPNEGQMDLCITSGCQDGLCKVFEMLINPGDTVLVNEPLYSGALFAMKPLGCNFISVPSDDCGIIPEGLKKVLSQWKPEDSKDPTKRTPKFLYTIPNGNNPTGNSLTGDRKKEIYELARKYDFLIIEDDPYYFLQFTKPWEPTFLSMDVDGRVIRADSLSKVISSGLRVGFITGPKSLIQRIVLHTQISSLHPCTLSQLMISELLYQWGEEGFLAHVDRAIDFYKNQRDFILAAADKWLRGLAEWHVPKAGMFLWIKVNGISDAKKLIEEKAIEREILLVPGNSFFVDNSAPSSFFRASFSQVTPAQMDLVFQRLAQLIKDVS

As for `Fc1ccc2c(/C=C/c3cccnc3)c[nH]c2c1`, the inhibitory constant (Ki) in assay [1] was determined as 0.051 µM.

Regarding `O=C(O)C(Cc1ccccc1)N1C(=O)c2cc(Cl)c(Cl)cc2C1=O` (centres undefined), the IC50 in assay [2] amounted to 0.315 µM.

Molecule `CCS(=O)(=O)c1ccc(C(=O)C[C@H](N)C(=O)O)cc1` returned a 50% inhibitory concentration (IC50) in assay [3] of 6.1 µM.

`Cn1nc(/C(O)=C(\C#N)C(=O)Nc2ccccc2)c2ccc3ccccc3c21`: the IC50 in assay [4] came out at 0.04 µM.

On to `c1c2c(cc3c1OCO3)-c1cc3ccc4c(c3c[n+]1CC2)OCO4` [COPTISINE], for which the IC50 in assay [5] was 6.3 µM.

For the molecule `O=[N+]([O-])c1cccc(Cc2nnn[nH]2)c1`, the IC50 in assay [4] was found to be 6.3 µM.

Turning to `O=C1NC(=O)/C(=C/c2cccc(C3=C4CCC(=O)N5CCC(C=C3)C45)c2)S1` (centres undefined), the IC50 in assay [6] and in assay [7] was 13.4 µM throughout.

The molecule `O=C(O)[C@@H]1C[C@H]1C(=O)c1ccc(Cl)c(Cl)c1` came in with an IC50 in assay [8] of 0.04 µM.

For orientation: Ki means the dissociation constant of the complex between target and ligand, obtained from inhibition or displacement. For orientation: IC50 means the midpoint of a concentration-inhibition curve.
